Paper PMC7587356, “High-Throughput Screening for Inhibitors of the SARS-CoV-2 Protease Using a FRET-Biosensor” (Molecules, 2020)
Counter-ions that a name gives are not always drawn. Like-named read-outs stand apart in the source and are kept apart here.

Molecular target: SARS-CoV-2 3CLpro (Severe acute respiratory syndrome coronavirus 2, UniProt P0DTD1)
Assay: biochemical
Type: biochemical
Set-up: Replicate_1 / Replicate_2 / mean / mean (LOPAC_screen_w_protease): unit not given here
Details: for mean (LOPAC screen with protease) / Replicate_1 (LOPAC screen with protease) / Replicate_2 (LOPAC screen with protease): primary screen at 5 µM; for inhibition at 5 µM: 4 h
[1] = sheet LOPAC_screen_w_protease, LOPAC1280 primary screen at 5 µM, with protease, mean of the two replicates
[2] = sheet LOPAC_screen_w_protease, LOPAC1280 primary screen at 5 µM, with protease, replicate 1
[3] = sheet LOPAC_screen_w_protease, LOPAC1280 primary screen at 5 µM, with protease, replicate 2
[4] = sheet LOPAC_screen_w_protease, LOPAC1280 primary screen with protease, 5 µM compound, mean of the two replicates
[5] = sheet LOPAC_screen_w_protease, LOPAC1280 primary screen with protease, 5 µM compound, replicate 1
[6] = sheet LOPAC_screen_w_protease, LOPAC1280 primary screen with protease, 5 µM compound, replicate 2
[7] = sheet LOPAC_screen_w_protease, primary screen of LOPAC1280 at 5 µM with protease, mean of the two replicates
[8] = sheet LOPAC_screen_w_protease, primary screen of LOPAC1280 at 5 µM with protease, replicate 1
[9] = sheet LOPAC_screen_w_protease, primary screen of LOPAC1280 at 5 µM with protease, replicate 2
[10] = sheet LOPAC_screen_w_protease, LOPAC1280 at 5 µM, mean of two replicates
[11] = sheet LOPAC_screen_w_protease, LOPAC1280 at 5 µM, replicate 1
[12] = sheet LOPAC_screen_w_protease, LOPAC1280 at 5 µM, replicate 2
[13] = LOPAC1280 primary screen with protease, 5 µM compound, mean of two replicates
[14] = LOPAC1280 primary screen with protease, 5 µM compound, replicate 1
[15] = LOPAC1280 primary screen with protease, 5 µM compound, replicate 2
[16] = sheet LOPAC_screen_w_protease, mean of two replicates
[17] = sheet LOPAC_screen_w_protease, replicate 1
[18] = sheet LOPAC_screen_w_protease, replicate 2
[19] = LOPAC1280 primary screen with protease, 5 µM compound, mean of the two replicates
[20] = sheet LOPAC_screen_w_protease, primary screen with protease, compound at 5 µM, mean of two replicates
[21] = sheet LOPAC_screen_w_protease, primary screen with protease, compound at 5 µM, replicate 1
[22] = sheet LOPAC_screen_w_protease, primary screen with protease, compound at 5 µM, replicate 2

O=C(O)C1CCCNC1 (racemic) [(±)-Nipecotic acid] showed a mean [1] of 0.4335, a Replicate_1 [2] of 0.981 and a Replicate_2 [3] of -0.114.
Compound COc1cc(C(O)CN)ccc1O.Cl (racemic) [(±)-Normetanephrine hydrochloride] has a mean [4] of 4.101, a Replicate_1 [5] of 4.337 and a Replicate_2 [6] of 3.864.
Work on CN1CCN(C2Cc3ccccc3Sc3ccc(Cl)cc32)CC1.O=C(O)/C=C\C(=O)O (racemic) [(±)-Octoclothepin maleate] yielded a mean [4] of 4.928, a Replicate_1 [5] of 3.609 and a Replicate_2 [6] of 6.247.
In the case of Cl.NCC(O)c1ccc(O)cc1 (racemic) [(±)-Octopamine hydrochloride], the mean [7] is reported as 4.023, the Replicate_1 [8] is reported as 4.835 and the Replicate_2 [9] is reported as 3.21.
Compound CCCN1CCOC2c3cc(O)ccc3OCC21.Cl (racemic) [(±)-PD 128,907 hydrochloride] has a mean [7] of 3.436, a Replicate_1 [8] of 4.647 and a Replicate_2 [9] of 2.226.
For CCCN(CCc1ccccc1)C1CCc2c(O)cccc2C1.Cl (racemic) [(±)-PPHT hydrochloride], the mean [10] was 1.126, the Replicate_1 [11] was 1.344 and the Replicate_2 [12] was 0.9086.
Compound CC(C)NCC(O)COc1cccc2ccccc12.Cl (racemic) [(±)-Propranolol hydrochloride] has a Replicate_1 of 2.83, a Replicate_2 of 6.763 and a mean of 4.797.
For CC(C)NCC(O)c1ccc(NS(C)(=O)=O)cc1.Cl (racemic) [(±)-Sotalol hydrochloride], the “mean (LOPAC_screen_w_protease)” value [13] was 1.4398, the “Replicate_1 (LOPAC_screen_w_protease)” value [14] was 1.054 and the “Replicate_2 (LOPAC_screen_w_protease)” value [15] was 1.826.
CNCC(O)c1ccc(O)cc1 (racemic) [(±)-Synephrine] was tested, and the “mean (LOPAC_screen_w_protease)” value [13] was 1.431, the “Replicate_1 (LOPAC_screen_w_protease)” value [14] was 1.098 and the “Replicate_2 (LOPAC_screen_w_protease)” value [15] was 1.765.
O=C1c2c(O)cc(O)cc2O[C@H](c2ccc(O)c(O)c2)[C@H]1O (racemic) [(±)-Taxifolin] was tested, and the “mean (LOPAC screen with protease)” value [16] was 7.529, the “Replicate_1 (LOPAC screen with protease)” value [17] was 9.2588 and the “Replicate_2 (LOPAC screen with protease)” value [18] was 5.799.
In the case of O=C1CCC(N2C(=O)c3ccccc3C2=O)C(=O)N1 (racemic) [(±)-Thalidomide], the mean [10] is reported as 1.21, the Replicate_1 [11] is reported as 0.4169 and the Replicate_2 [12] is reported as 2.003.
In the case of COc1cc(C(O)C(=O)O)ccc1O (racemic) [(±)-Vanillylmandelic acid], the mean [10] is reported as 1.1, the Replicate_1 [11] is reported as 2.648 and the Replicate_2 [12] is reported as -0.449.
Cl.OC1CCCCC1N1CCC(c2ccccc2)CC1 (racemic) [(±)-Vesamicol hydrochloride] showed a mean [1] of 0.573, a Replicate_1 [2] of 1.205 and a Replicate_2 [3] of -0.05902.
For CC(N)(C(=O)O)c1ccc(C(=O)O)cc1 (racemic) [(±)-alpha-Methyl-4-carboxyphenylglycine], the mean [4] was 4.794, the Replicate_1 [5] was 3.648 and the Replicate_2 [6] was 5.939.
O=C(O)[C@H]1CCCN[C@H]1C(=O)O (racemic) [(±)-cis-Piperidine-2,3-dicarboxylic acid] was tested, and the “mean (LOPAC_screen_w_protease)” value [13] was 1.527, the “Replicate_1 (LOPAC_screen_w_protease)” value [14] was 0.9979 and the “Replicate_2 (LOPAC_screen_w_protease)” value [15] was 2.056.
Compound C=CC(N)CCC(=O)O (racemic) [(±)-gamma-Vinyl GABA] has a mean (sheet LOPAC_screen_w_protease, primary screen with protease, 5 µM, mean of two replicates) of -0.2228, a Replicate_1 (sheet LOPAC_screen_w_protease, primary screen with protease, 5 µM, replicate 1) of -0.2758 and a Replicate_2 (sheet LOPAC_screen_w_protease, primary screen with protease, 5 µM, replicate 2) of -0.1698.
CCC1(c2ccc(N)cc2)CCC(=O)NC1=O (racemic) [(±)-p-Aminoglutethimide] was tested, and the mean (sheet LOPAC_screen_w_protease, primary screen with protease, mean of two replicates) was 2.443, the Replicate_1 (sheet LOPAC_screen_w_protease, primary screen with protease, replicate 1) was 1.25 and the Replicate_2 (sheet LOPAC_screen_w_protease, primary screen with protease, replicate 2) was 3.637.
NC(Cc1ccc(Cl)cc1)C(=O)O (racemic) [(±)-p-Chlorophenylalanine] was tested, and the mean [7] was 3.154, the Replicate_1 [8] was 1.596 and the Replicate_2 [9] was 4.711.
Compound CCCCS(=N)(=O)CCC(N)C(=O)O (racemic) [DL-Buthionine-[S,R]-sulfoximine] has a mean [1] of 0.7813, a Replicate_1 [2] of 0.9596 and a Replicate_2 [3] of 0.6029.
N[C@@H]1CONC1=O (racemic) [DL-Cycloserine] showed a mean [7] of 3.186, a Replicate_1 [8] of 2.383 and a Replicate_2 [9] of 3.989.
In the case of CCCCCCCCCCCCCCCCCC(=O)OC(CC(=O)O)C[N+](C)(C)C.[Cl-] (racemic) [DL-Stearoylcarnitine chloride], the “mean (LOPAC_screen_w_protease)” value [19] is reported as 1.7681, the “Replicate_1 (LOPAC_screen_w_protease)” value [14] is reported as 3.299 and the “Replicate_2 (LOPAC_screen_w_protease)” value [15] is reported as 0.2369.
In the case of O=C(O)CNC(=O)C(CS)Cc1ccccc1 (racemic) [DL-Thiorphan], the inhibition at 5 µM (sheet LOPAC_screen_w_protease, primary screen with protease, 5 µM, mean of two replicates, read-out: mean) is reported as 0.357%, the inhibition at 5 µM (sheet LOPAC_screen_w_protease, primary screen with protease, 5 µM, replicate 1, read-out: Replicate_1) is reported as -0.479% and the inhibition at 5 µM (sheet LOPAC_screen_w_protease, primary screen with protease, 5 µM, replicate 2, read-out: Replicate_2) is reported as 1.19%.
CC(N)(Cc1ccc(O)cc1)C(=O)O (racemic) [DL-alpha-Methyl-p-tyrosine] showed a mean [10] of 1.1698, a Replicate_1 [11] of 0.7226 and a Replicate_2 [12] of 1.617.
In the case of CCCCCCCCCCCCCCC[C@H](O)[C@H](N)CO (racemic) [DL-erythro-Dihydrosphingosine], the “mean (LOPAC_screen_w_protease)” value [13] is reported as 1.428, the “Replicate_1 (LOPAC_screen_w_protease)” value [14] is reported as 4.536 and the “Replicate_2 (LOPAC_screen_w_protease)” value [15] is reported as -1.681.
With NC(C(=O)O)C(O)C(=O)O (racemic) [DL-threo-beta-hydroxyaspartic acid] the “mean (LOPAC_screen_w_protease)” value [19] was 2.095, the “Replicate_1 (LOPAC_screen_w_protease)” value [14] was 2.385 and the “Replicate_2 (LOPAC_screen_w_protease)” value [15] was 1.804.
Work on Oc1cc2c(cc1O)[C@H]1c3ccccc3CN[C@@H]1CC2 (racemic) [Dihydrexidine hydrochloride] yielded an inhibition at 5 µM (read-out: Replicate_1 (LOPAC screen with protease)) of 96.2%, an inhibition at 5 µM (read-out: Replicate_2 (LOPAC screen with protease)) of 98.8% and an inhibition at 5 µM (read-out: mean (LOPAC screen with protease)) of 97.5%.
CCCCCCCCCCCCCCCC(=O)OC(CC(=O)O)C[N+](C)(C)C.[Cl-] (racemic) [Palmitoyl-DL-Carnitine chloride] showed a mean [20] of 2.684, a Replicate_1 [21] of 2.378 and a Replicate_2 [22] of 2.9894.
For Br.CCCN1CC[C@@H]2c3cc(O)ccc3CC[C@@H]21 (racemic) [cis-(±)-8-OH-PBZI hydrobromide], the mean [7] was 4.0009, the Replicate_1 [8] was 4.218 and the Replicate_2 [9] was 3.784.
In the case of O=C(O)[C@H]1C[C@H](C(=O)O)N1 (relative stereo) [trans-Azetidine-2,4-dicarboxylic acid], the “mean (LOPAC_screen_w_protease)” value [19] is reported as 2.097, the “Replicate_1 (LOPAC_screen_w_protease)” value [14] is reported as 1.338 and the “Replicate_2 (LOPAC_screen_w_protease)” value [15] is reported as 2.855.
For COc1ccc2c(c1OC)C(=O)OC2C1c2cc3c(cc2CCN1C)OCO3 (single isomer, unassigned; (+)) [(+)-Hydrastine], the inhibition at 5 µM (LOPAC1280 primary screen with protease, 5 µM compound, replicate 1, read-out: Replicate_1 (LOPAC_screen_w_protease)) was 2.51%, the inhibition at 5 µM (LOPAC1280 primary screen with protease, 5 µM compound, replicate 2, read-out: Replicate_2 (LOPAC_screen_w_protease)) was 0.711% and the “mean (LOPAC_screen_w_protease)” value [13] was 1.61.
Compound CC12NC(Cc3ccccc31)c1ccccc12.O=C(O)/C=C\C(=O)O (single isomer, unassigned; (+)) [(+)-MK-801 hydrogen maleate] has a mean [20] of 2.6873, a Replicate_1 [21] of 4.9061 and a Replicate_2 [22] of 0.4685.
In the case of CC(C)NCC(O)c1ccc(O)c(O)c1.Cl (single isomer, unassigned; (-)) [(-)-Isoproterenol hydrochloride], the “mean (LOPAC_screen_w_protease)” value [19] is reported as 2.084 and the “Replicate_2 (LOPAC_screen_w_protease)” value [15] is reported as 1.275.
CC(N)C(O)c1ccc(O)c(O)c1 (single isomer, unassigned; (-)) [(-)-alpha-Methylnorepinephrine] was tested, and the “mean (LOPAC screen with protease)” value [16] was 8.627, the “Replicate_1 (LOPAC screen with protease)” value [17] was 8.881 and the “Replicate_2 (LOPAC screen with protease)” value [18] was 8.372.
For N.N.N.Nc1ncnc2c1ncn2C1OC(COP(=O)(O)OP(=O)(O)OP(=O)(O)OP(=O)(O)OC[C@H]2O[C@@H](n3cnc4c(N)ncnc43)C(O)C2O)[C@@H](O)C1O (stereo in doubt), the “mean (LOPAC_screen_w_protease)” value [19] was 2.093, the “Replicate_1 (LOPAC_screen_w_protease)” value [14] was 3.71 and the “Replicate_2 (LOPAC_screen_w_protease)” value [15] was 0.4753.
